# Legend:
# [1] = Foaming power tests (Waring Blender); format: physicochemical; details: 30 seconds at 8000 rpm; for FS (foam stability, time to regenerate 50 mL of liquid), Test 4 / FV (foam volume), Test 4: 1% by weight solution in 4% sea salt water solution; for FS (foam stability, time to regenerate 50 mL of liquid), Test 3 / FV (foam volume), Test 3: 1% by weight solution in deionized water
# Method: The foam volume (FV) and the foam stability (FS) were determined by stirring for 30 seconds at high speed (8000 rpm) with a Waring Blender 100 mL of a 1% by weight solution of the inhibitors in deionized water (Test 3) or in a 4% sea salt water solution (Test 4). The foamed composition is then transferred into a graded cylinder for the evaluation of the foam volume and the stability of the foam.
# FV represent the volume in mL of foam at the end of the stirring. FS is the time in seconds required to the foamed solution to regenerate 50 mL of liquid. The longer the time, the higher the stability of the foam.
# [2] = Corrosion tests, Linear Polarization Resistance (LPR); details: 10 ppm by volume inhibitor, synthetic brine, CO2, 200 ppm H2S, 80° C., compared to the blank; for % Protection, 1 hour: after 1 hour; for % Protection, 16 hours: after 16 hours
# Method: The Linear Polarization Resistance (LPR) measurements were made with a Gamry Electrochemical Instrument system.
# The LPR corrosion tests were conducted in 1 L Pyrex jacketed cells. 900 mL of synthetic brine (50/50 v/v 4.0% Seasalt water/Fresh Water) were loaded in the cell placed on a magnetic stirrer, deaerated overnight with CO2 and, finally, saturated with 200 ppm H2S gas just before testing. A clean C1018 Mild Steel rod was inserted in the corrosion cell assembly as sample probe. A graphite rod was used as the counter electrode. The temperature of the solution was brought to 80° C. for the duration of the tests and CO2 was continuously purged at a constant flow rate. The (Test 4) inhibitors were added at 10 ppm by volume of test solution.
# The results are reported in Table 4 as % of protection after a fixed period of time compared to the blank, the test solution without any inhibitor, which is considered 100% corrosion.
# [3] = Gas hydrate inhibition test (Rocking Cell RC5); design: key: FAIL: The ball is stuck and/or large agglomerations or solid crystals and/or visible deposits on the cell walls.; PASS: The ball is free; solid crystals might be present, but agglomerates (large or small) break up with agitation; details: 2% by weight inhibitor, 4° C., visual evaluation after 16 hours shut-in; for gas hydrate inhibition, Test 2: 20/80 v/v deionized water/diesel; for gas hydrate inhibition, Test 1: 50/50 v/v 4% wt seasalt water/diesel
# Method: Gas Hydrate Inhibition Test
# The performances of the gas hydrate inhibitors of the invention were evaluated with a Rocking Cell RC5 by PSL Systemtechnik.
# Test Fluids • Hydrocarbon: Diesel • Aq. Phase: 4% wt seasalt water or deionized water • Gas: Mix of methane, ethane, propane and butane (various isomers)
# The sapphire test cells, containing a stainless steel ball, were filled with the fluids (see Table 1) and 2% by weight of inhibitor and pressurized with the gas mixture.
# Each cell was the subjected to a cycle of cooling and rocking consisting of three steps: 1) flowing condition, 2) shut-in and 3) re-start flowing condition. • 1) The pressurized cells were cooled down to 4° C. over a period of 5 hours while rocking. After reaching 4° C., the cells were rocked for 12 hours. • 2) The rocking was stopped and the test cells were kept in horizontal position (shut-in) for 16 hours. • 3) At the end of the shut-in period, rocking was re-started for 4 hours. Finally the cells were heated back up to 20° C.
# At the beginning of the third step, the content of the cells was visually evaluated.
# Each cycle was replicated three times and the results registered.
# The results of the gas hydrate inhibition tests (Table 2) are reported according to the following scale: • FAIL: The ball is stuck and/or large agglomerations or solid crystals and/or visible deposits on the cell walls. • PASS: The ball is free; solid crystals might be present, but agglomerates (large or small) break up with agitation.
Substance,"FS (foam stability, time to regenerate 50 mL of liquid), Test 4 [1] [s]","FV (foam volume), Test 4 [1] [mL]","FS (foam stability, time to regenerate 50 mL of liquid), Test 3 [1] [s]","FV (foam volume), Test 3 [1] [mL]","% Protection, 1 hour [2] [%]","% Protection, 16 hours [2] [%]","gas hydrate inhibition, Test 2 [3]","gas hydrate inhibition, Test 1 [3]"
"N,N-dibutyl-N-ethyl-cocooxyethyl ammonium chloride",59,172,97,210,78.9,87.9,–,–
"N,N-dibutyl-N-ethyl-cocooxyethyl ammonium ethyl sulfate",46,160,70,185,81.4,90.2,PASS,PASS
"N,N-dibutyl-N-ethyl-soyaoxyethyl ammonium ethyl sulfate",118,230,180,320,–,–,–,–
benzylcocodimethyl ammonium chloride,215,430,260,480,79.7,89.5,FAIL,FAIL
